Measured values as given in the supplement of paper PMC13207355.

Experiments:
Conditions in all cases: exposure time: 72 h
E21 [1] = patient-derived glioblastoma stem cells of mesenchymal subtype; test: surviving fraction (nuclei count normalised to DMSO); higher = more cells surviving (less toxic)
E13 [2] = patient-derived glioblastoma stem cells of classical subtype; test: as above
FT3469 [3] = normal neural stem cell line; test: as above
E34 [4] = patient-derived glioblastoma stem cells of proneural subtype; test: as above
E28 [5] = patient-derived glioblastoma stem cells of classical subtype; test: as above
E31 [6] = patient-derived glioblastoma stem cells of proneural subtype; test: as above
E57 [7] = patient-derived glioblastoma stem cells of mesenchymal subtype; test: as above
E21 [8] = test: phenotypic distance (Euclidean, principal components) from DMSO controls (arbitrary units); higher = stronger morphological change
E13 [9] = test: as above
FT3469 [10] = test: as above
E34 [11] = test: as above
E28 [12] = test: as above
E31 [13] = test: as above
E57 [14] = test: as above
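For phenotypic distance (Euclidean, principal components) from DMSO controls in this document: cell Painting imaging in 384-well plates, CellProfiler features reduced to at least 20 principal components, Euclidean distance versus same-plate DMSO vehicle wells (0.1% v/v), median over six images per well.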
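For surviving fraction (nuclei count normalised to DMSO) in this document: nuclei counted by high-content imaging of Hoechst-stained cells in laminin-coated 384-well plates, relative to 0.1% DMSO vehicle wells, with staurosporine as cell-death control.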

C=CC(=O)Nc1cccc(Oc2nc(Nc3ccc(N4CCN(C)CC4)cc3)nc3ccsc23)c1 [Olmutinib]
Conditions	phenotypic distance	surviving fraction
E13 [2], 4.1 nM	–	0.944
E13 [2], 12.3 nM	–	0.915
E13 [2], 37 nM	–	0.963
E13 [2], 111.1 nM	–	0.967
E13 [2], 333.3 nM	–	0.965
E13 [2], 1000 nM	–	0.801
E13 [2], 3000 nM	–	0.453
E13 [9], 4.1 nM	0.908	–
E13 [9], 12.3 nM	0.809	–
E13 [9], 37 nM	2.13	–
E13 [9], 111.1 nM	1.1	–
E13 [9], 333.3 nM	0.827	–
E13 [9], 1000 nM	0.937	–
E13 [9], 3000 nM	1.92	–
E21 [1], 4.1 nM	–	0.895
E21 [1], 12.3 nM	–	0.932
E21 [1], 37 nM	–	0.932
E21 [1], 111.1 nM	–	0.759
E21 [1], 333.3 nM	–	0.873
E21 [1], 1000 nM	–	0.67
E21 [1], 3000 nM	–	0.411
E21 [8], 4.1 nM	0.923	–
E21 [8], 12.3 nM	0.831	–
E21 [8], 37 nM	0.851	–
E21 [8], 111.1 nM	3.27	–
E21 [8], 333.3 nM	1.24	–
E21 [8], 1000 nM	2.44	–
E21 [8], 3000 nM	5.22	–
E28 [5], 4.1 nM	–	0.955
E28 [5], 12.3 nM	–	0.88
E28 [5], 37 nM	–	1.02
E28 [5], 111.1 nM	–	0.954
E28 [5], 333.3 nM	–	0.885
E28 [5], 1000 nM	–	0.842
E28 [5], 3000 nM	–	0.419
E28 [12], 4.1 nM	0.675	–
E28 [12], 12.3 nM	0.862	–
E28 [12], 37 nM	0.601	–
E28 [12], 111.1 nM	0.634	–
E28 [12], 333.3 nM	0.515	–
E28 [12], 1000 nM	1.01	–
E28 [12], 3000 nM	2.28	–
E31 [6], 4.1 nM	–	0.776
E31 [6], 12.3 nM	–	0.969
E31 [6], 37 nM	–	1.01
E31 [6], 111.1 nM	–	0.698
E31 [6], 333.3 nM	–	0.856
E31 [6], 1000 nM	–	0.568
E31 [6], 3000 nM	–	0.155
E31 [13], 4.1 nM	1.5	–
E31 [13], 12.3 nM	0.605	–
E31 [13], 37 nM	0.731	–
E31 [13], 111.1 nM	1.36	–
E31 [13], 333.3 nM	0.65	–
E31 [13], 1000 nM	1.66	–
E31 [13], 3000 nM	4.05	–
E34 [4], 4.1 nM	–	0.929
E34 [4], 12.3 nM	–	0.967
E34 [4], 37 nM	–	0.814
E34 [4], 111.1 nM	–	0.994
E34 [4], 333.3 nM	–	0.857
E34 [4], 1000 nM	–	0.804
E34 [4], 3000 nM	–	0.673
E34 [11], 4.1 nM	0.793	–
E34 [11], 12.3 nM	0.977	–
E34 [11], 37 nM	0.66	–
E34 [11], 111.1 nM	0.999	–
E34 [11], 333.3 nM	0.636	–
E34 [11], 1000 nM	0.75	–
E34 [11], 3000 nM	2.02	–
E57 [7], 4.1 nM	–	0.983
E57 [7], 12.3 nM	–	1.09
E57 [7], 37 nM	–	0.983
E57 [7], 111.1 nM	–	0.915
E57 [7], 333.3 nM	–	0.958
E57 [7], 1000 nM	–	0.845
E57 [7], 3000 nM	–	0.585
E57 [14], 4.1 nM	0.67	–
E57 [14], 12.3 nM	0.94	–
E57 [14], 37 nM	0.658	–
E57 [14], 111.1 nM	2.04	–
E57 [14], 333.3 nM	0.972	–
E57 [14], 1000 nM	0.888	–
E57 [14], 3000 nM	3.89	–
FT3469 [3], 4.1 nM	–	0.879
FT3469 [3], 12.3 nM	–	0.925
FT3469 [3], 37 nM	–	0.864
FT3469 [3], 111.1 nM	–	0.916
FT3469 [3], 333.3 nM	–	0.851
FT3469 [3], 1000 nM	–	0.856
FT3469 [3], 3000 nM	–	0.722
FT3469 [10], 4.1 nM	1.28	–
FT3469 [10], 12.3 nM	1.16	–
FT3469 [10], 37 nM	1.51	–
FT3469 [10], 111.1 nM	1.24	–
FT3469 [10], 333.3 nM	1.44	–
FT3469 [10], 1000 nM	1.3	–
FT3469 [10], 3000 nM	1.91	–
